Assay results reported in patent publication US20230340440A1, “GENETIC MANIPULATION METHOD IN BACTERIA” (University of Washington, priority 2022, published 2023).

How the values were obtained:
Assay type in all cases: cell-based, P. putida
J3-BBa_J23117-mvaES = assay: mevalonate pathway activation by CRISPRa, GC-MS; settings: 13-mvaES (pBBR1-GmR); relative to off-target scRNA; FIG. 7B
Experimental: For mevalonate production experiments, the GC-MS method was adapted from prior methods (Pfleger et al., 2007. Microbial sensors for small molecules: Development of a mevalonate biosensor. Metab. Eng. 9, 30-38). Single colonies from LB plates were inoculated in 500 µL of EZ-RDM (Teknova) supplemented with the appropriate antibiotics and grown in 96-deep-well plates at 30° C. with shaking overnight at 225 rpm. Overnight cultures were subcultured by 1:100 dilution into 3 mL of EZ-RDM media with 1% glucose as the carbon source, supplemented with the appropriate antibiotics, and shaken at 225 rpm for 72 hours at 30° C. After 72 hours, 560 µL of cell suspension was acidified with 140 µL of 0.5 M HCl and vortexed. 700 µL ethyl acetate was added and samples were then vortexed again vigorously for 3 minutes and centrifuged at maximum speed in a benchtop centrifuge (15,000 rcf) for 10 min. […] The temperature cycle started at 80° C. and was followed by a gradient of 20° C./min to 260° C., a second gradient of 40° C./min to 300° C., and a hold at 300° C. for 2 min. m/z = 71, the second most abundant peak corresponding to mevalonolactone, was used for quantitation (Pfleger et al., 2007. Microbial sensors for small molecules: Development of a mevalonate biosensor. Metab. Eng. 9, 30-38). […] The calculated concentration was adjusted by the addition of HCl. […]

J3 promoter = assay: CRISPRa reporter gene activation, J3-BBa_J23117-mRFP; settings: for activation of mRFP: FIG. 4
Experimental: Fluorescence measurements of reporter gene expression were carried out either by flow cytometry or plate reader. Single colonies from LB plates were inoculated in 500 µL of EZ-RDM (Teknova) supplemented with the appropriate antibiotics and grown in 96-deep-well plates at 30° C. with shaking overnight 225 rpm. For small-molecule induction, overnight cultures were diluted 100-fold into a new culture with appropriate antibiotics and inducers, then shaken overnight at 30° C., 225 rpm. For flow cytometry, overnight cultures were diluted 1:50 in Dulbecco’s phosphate-buffered saline (PBS) and analyzed on a MACSQuant VYB flow cytometer with the MACSQuantify 2.8 software (Miltenyi Biotec) using the methods and instruments settings as described (Dong et al., 2018. Synthetic CRISPR-Cas gene activators for transcriptional reprogramming in bacteria. Nat Commun 9, 2489). For plate reader measurements, 150 µL of overnight culture were transferred into a flat, clear-bottomed black 96-well plate. OD600 and fluorescence values were measured in a Biotek Synergy HTX plate reader and analyzed using the BioTek Gen5 2.07.17 software. For mRFP1 detection, the excitation wavelength was 540 nm and emission wavelength was 600 nm. For sfGFP detection, the excitation wavelength was 485 nm and the emission wavelength was 528 nm. Data were plotted using Prism (GraphPad).
Next, the 20 bp target sequence that is recognized by the scRNA was examined. The experiments described above were performed with the J1 promoter, which contains an array of 20 base target sites. An alternative promoter, termed J3, that has a different set of 20 base target sites was tested. […] Compared to the J1 promoter, where a 4-fold activation (J106 target site) was observed, the fold-activation with the J3 promoter increased to 34-fold (J306 target site) (FIG. 2D). For both J1 and J3, the CRISPRa-induced expression levels were similar. The large difference in fold-activation results from an unexpected difference in basal expression levels. The basal expression of J3-mRFP is 11-fold lower than that of J1-mRFP, which leads to much higher fold-activation. […]
With optimized expression levels and a delivery strategy for the CRISPRa system in P. putida in place, whether CRISPRa and CRISPRi can be used together to activate and repress multiple genes was tested. […] A dual scRNA/sgRNA cassette was inserted in this plasmid with a J306 scRNA for mRFP activation and an sgRNA that targets within the sfGFP open reading frame (ORF) for repression. […]

J3-GTPCH, J3-PTPS, J3-SR = assay: biopterin pathway activation by CRISPRa, HPLC-MS; settings: J3-SR (pBBR1-GmR), relative to off-target scRNA, FIG. 6D

Q: Which results are given for “J306: scRNA, SEQ ID NO: 95, target TTGTGTCCAGAACGCTCCGT, J3 and J1(306) promoters, template strand, 81 to TSS (chemistry not given here)”?
A: Fold-change, metabolite production (J3-BBa_J23117-mvaES): >40-fold; Fold-change (J3 promoter; J3-mRFP (integrated), dual reporters genomically-integrated, FIG. 15A): 3-fold; Fold-change (J3 promoter; J3-mRFP (pBBR1-GmR), dual mRFP/sfGFP reporter plasmid-bourne, FIG. 13): 41-fold; activation of mRFP (J3 promoter; just a single scRNA delivered, weak mRFP/strong sfGFP dual-reporter plasmid): 15 fold; activation of mRFP (J3 promoter; simultaneous CRISPRa/CRISPRi, dual-reporter plasmid with sfGFP-repressing sgRNA): 6.6 fold; Fold-change, metabolite production (J3-GTPCH, J3-PTPS, J3-SR): 5-fold
